# Data: patent US7968605B2, “Methods for treating inflammatory disease by administering aldehydes and derivatives thereof” (ALFAMA—Investigação e Desenvolvimento de Produtos …, priority 2002, dated 2011)
# Experiments:
# [1] = CO release from aldehyde prodrug compounds in TBHP plus rpmi solution; conditions: for CO release / Rate of CO release: 1.5 ml rpmi + 0.5 ml TBHP, 37° C.
# Experimental: (§1) At the appropriate time, 250 μl of the gas mixture was removed from the vial, injected in the gas chromatograph (Trace GC with a TCD detector from Thermo Finnigan, connected to a Chrom-card 32 bit software), and the amount of CO was measured according to previously calibrated conditions.
# 1.5 ml of rpmi and 0.5 ml of TBHP were added, and the vial was placed at 37° C. with orbital stirring. At the appropriate time, 250 μl of the gas mixture was analysed as described for Example 1.
# adjuvant arthritis [2] = assay: Anti-arthritic activity, adjuvant arthritis in Sprague-Dawley rats; format: in vivo; conditions: 100 mg/kg/day intraperitoneal for 20 days from day 10
# Experimental: Adjuvant arthritis was induced in outbred Sprague-Dawley rats by intradermal injection into the subplantar area of the right hind paw of 0.1 ml of a 10 mg/ml suspension of Mycobacterium butyricum, killed and dried in Freund's incomplete adjuvant. Treatment was initiated 10 days after disease induction at the time of disease onset. Groups of 7 rats received intraperitoneal injections of compound 1 and compound 2 in 1 ml PBS, each at a dose of 100 mg/kg/day for 20 days. A control group of 7 rats received no treatment. Progression of arthritis was monitored by daily measurements of right and left paw volumes by a water displacement method using a plethysmometer, by daily measurements of the ankle circumference with a flexible strip, and by determination of the arthritic index based on levels of erythema and oedema of the entire paws and digits, number of joints involved, spondylosis, lesions on the tail, movement capacity and infections. The maximum possible score was 11.
# adjuvant arthritis [3] = assay: Anti-arthritic activity, adjuvant arthritis in Lewis rats; format: in vivo; conditions: for Arthritic score / Increase in paw volume compared to vehicle or untreated rats: 100 and 25 mg/kg daily
# [4] = CO release from aldehydes in different media (TBHP, H2O2, rpmi, pH 2), gas chromatograph; conditions: for CO release in rpmi: RPMI media with 10% fetal calf serum; for CO release in rpmi / CO release in TBHP solution / CO release in H2O2 solution / Media in which CO release was observed: 37° C.; for CO release in TBHP solution: TBHP solution in excess, aldehyde about 0.11-0.17 M; for Effect of radical trap 2,6-di-tert-butylphenol on CO release in acidic aqueous solution: acidic aqueous solution plus radical trap; for CO release in pH 2 (acidic aqueous) solution: aqueous solution pH 2-2.5, 37° C.; for CO release in H2O2 solution: hydrogen peroxide solution, 35% in water; for Media in which CO release was observed: tested in TBHP, H2O2, rpmi and pH 2 solutions
# Experimental: In each experiment 2 ml of the appropriate solution, TBHP, H2O2, rpmi or pH 2 solution, was added and the vial placed at 37° C. with orbital stirring.
# as §1
# [5] = 25 mg/kg daily injections for 30 days from day 10
# [6] = 100 mg/kg daily injections for 30 days from day 10
# [7] = listed as 4-ethyl-4-formyl-hexanenitrile
structure (smiles),measurement,setting,value
CC(C)(C)C=Nc1ccc(C(=O)O)c(O)c1,CO release,[1],"Stable, but instaneous hydro- lysis was observed when dissolved in water"
CC(C)(C)C=NNC(=O)c1ccccc1,CO release,[1],No hydrolysis → No CO
CC(C)(C)/C=N/NC(=O)Nc1ccccc1,CO release,[1],No hydrolysis → No CO
COC(=O)C1COC(C(C)(C)C)N1 (stereo not shown),CO release after 6 hours,[1]; TBHP plus rpmi,0%
same,CO release after 24 hours,[1]; TBHP plus rpmi,4.2%
CC1C(c2ccccc2)OC(C(C)(C)C)N1C (stereo not shown),CO release,[1],No hydrolysis → No CO
CC(C)(C)C1Nc2ccccc2CO1 (stereo not shown),CO release,[1],No hydrolysis → No CO
"CC(C)(C)C1NC(C(=O)O)CS1 (racemic) [compound 9, 2-tert-butylthiazolidine-4-carboxylic acid]",CO release,[1],released CO
same,Rate of CO release,[1],fast within the first 6 hours
same,CO release after 5 hours,"[1]; TBHP plus rpmi, 5 hours",17%
same,CO release after 6 hours,[1]; TBHP plus rpmi,around 16%
same,CO release after 23 hours,"[1]; TBHP plus rpmi, 23 hours",21%
same,CO release after one day,[1]; TBHP plus rpmi,20%
COC(=O)C1CSC(C(C)(C)C)N1 (racemic) [compound 10],CO release,[1],released CO
same,Rate of CO release,[1],very slow
same,CO release after 6 hours,[1]; TBHP plus rpmi,0.3%
same,CO release after 25 hours,[1]; TBHP plus rpmi,10.3%
same,CO release after one day,[1]; TBHP plus rpmi,about 10%
"CC(C)(C)C1NCCS1 (racemic) [compound 11, 2-tert-butyl-thiazolidine]",CO release,[1],released CO
same,Rate of CO release,[1],initially very slowly
same,CO release after 6 hours,[1]; TBHP plus rpmi,3%
same,CO release after 24 hours,[1]; TBHP plus rpmi,25%
same,CO release after one day,[1]; TBHP plus rpmi,about 25%
"CC(C)(C)C1NC(C(=O)O)CCS1 (racemic) [compound 12, 2-tert-butyl-[1,3]thiazinane-4-carboxylic acid]",CO release,[1],lower than its 5-membered ring analogue
same,CO release after 6 hours,[1]; TBHP plus rpmi,7.7%
same,CO release after 25 hours,[1]; TBHP plus rpmi,15.8%
same,CO release after one day,[1]; TBHP plus rpmi,about 16%
"CC(C)(C)C=O [compound 1, trimethylacetaldehyde]",Body weight after disease onset,adjuvant arthritis [2],No loss of body weight was observed
same,Paw circumference (right and left),adjuvant arthritis [2],prevented the increase
same,Paw volume (right and left),adjuvant arthritis [2],prevented the increase
same,Increase in body weight by day 40,adjuvant arthritis [3]; [5],38.7%
same,Increase in body weight by day 40,adjuvant arthritis [3]; [6],40%
same,Arthritic score,adjuvant arthritis [3],only slightly influenced
same,Increase in paw volume compared to vehicle or untreated rats,adjuvant arthritis [3],reduced the increase in paw volume
same,Dependence of CO release on TBHP concentration,"[4]; 0.23 M aldehyde, varying TBHP, up to 32 eq.",increased with the concentration of TBHP until approximately eight equivalents of TBHP was reached
same,CO release at higher and lower aldehyde concentrations relative to maximum,[4]; 0.25 M and 0.08 M aldehyde in TBHP,decreased approximately to half
same,Aldehyde concentration giving maximum CO release,[4]; 1.9 M TBHP,around 0.12 M
same,CO release in rpmi,[4],No CO was detected
same,CO release at TBHP concentration of inflamed tissues,[4]; TBHP 1 mM,CO release still was observed
same,CO release in TBHP solution,[4],released CO
same,"Effect of radical trap 2,6-di-tert-butylphenol on CO release in TBHP solution",[4]; TBHP solution plus radical trap,inhibited
same,"Effect of radical trap 2,6-di-tert-butylphenol on CO release in acidic aqueous solution",[4],inhibited
same,CO release in pH 2 (acidic aqueous) solution,[4],very little
same,CO release in H2O2 solution,[4],No CO was detected
"C=CCC(C)(C)C=O [compound 2, 2,2-dimethyl-4-pentenal]",Body weight after disease onset,adjuvant arthritis [2],No loss of body weight was observed
same,Paw circumference (right and left),adjuvant arthritis [2],prevented the increase
same,Paw volume (right and left),adjuvant arthritis [2],prevented the increase
same,CO release in rpmi,[4],decarbonylation in rpmi observed
same,CO release in rpmi,"[4]; listed as 2,2-dimethyl-4-pentenal",even less
same,CO release in TBHP solution,[4],released CO
same,CO release in pH 2 (acidic aqueous) solution,[4],very little
same,CO release in H2O2 solution,[4],No CO release was observed
"CCC(C=O)(CC)CCC#N [compound 3, 4-ethyl-4-formyl-hexanenitrile]",CO release in rpmi,[4],decarbonylation in rpmi observed
same,CO release in rpmi,[4]; [7],even less
same,CO release in TBHP solution,[4],released a very high amount of CO
same,"Effect of radical trap 2,6-di-tert-butylphenol on CO release in acidic aqueous solution",[4],inhibited the decarbonylation process
same,CO release in pH 2 (acidic aqueous) solution,[4],decarbonylated significantly
same,CO release in pH 2 (acidic aqueous) solution,[4]; [7],less
same,CO release in H2O2 solution,[4],No CO release was observed
"CC(C)(C=O)CO [compound 4, 3-hydroxy-2,2-dimethylpropanal]",Time course of CO release in TBHP solution,"[4]; TBHP solution, 0.12 M","initially the CO release was small, but within one day, it reached high levels"
same,Media in which CO release was observed,[4],released CO only in TBHP solution
"Cc1ccc(CC(C)(C)C=O)cc1 [compound 6, 2,2-dimethyl-3-(p-methylphenyl)propanal]",CO release in rpmi,[4],decarbonylation in rpmi observed
same,"Effect of radical trap 2,6-di-tert-butylphenol on CO release in acidic aqueous solution",[4],inhibited the decarbonylation process
same,CO release in pH 2 (acidic aqueous) solution,[4],decarbonylated significantly
same,Media in which CO release was observed,[4],released CO in all media tested except H2O2 solution
"CC(C)(C=O)c1ccccc1 [compound 7, 2-methyl-2-phenylpropionaldehyde]",Increase in body weight by day 40,adjuvant arthritis [3]; [5],28.6%
same,Days with significant inhibition of arthritic score relative to vehicle treated rats,adjuvant arthritis [3]; 100 mg/kg,14 days
same,Reduction in paw volume compared with dexamethasone,adjuvant arthritis [3]; 100 mg/kg,comparable to that seen in rats treated with dexamethasone
same,Increase in body weight by day 40,adjuvant arthritis [3]; [6],31.6%
same,Arthritic score,adjuvant arthritis [3],only slightly influenced
same,Increase in paw volume compared to vehicle or untreated rats,adjuvant arthritis [3],reduced the increase in paw volume
same,"Effect of radical trap 2,6-di-tert-butylphenol on CO release in acidic aqueous solution",[4],inhibited the decarbonylation process
same,CO release in pH 2 (acidic aqueous) solution,[4],decarbonylated significantly
same,CO release in H2O2 solution,[4],responded significantly to decarbonylation
same,Media in which CO release was observed,[4],released CO in all media tested except rpmi solution
"C[C@@H]1C[C@H]2[C@@H]3CCC4=CC(=O)C=C[C@]4(C)[C@@]3(F)[C@@H](O)C[C@]2(C)[C@@]1(O)C(=O)CO [dexamethasone, reference compound]",Increase in body weight by day 40,adjuvant arthritis [3]; dexamethasone 0.3 mg/kg daily for 30 days from day 10,25.7%
